26 molecules from US12213969B2, “2-spiro-5- and 6-hydroxamic acid indanes as HDAC inhibitors” (Valo Health, Inc., priority 2016, dated 2025) can be followed below.

This experiment has as its target T1, Full length human recombinant HDAC6 protein (Homo sapiens, UniProt Q9UBN7).
T1 construct: made in house
T1 sequence (Q9UBN7 1-1215): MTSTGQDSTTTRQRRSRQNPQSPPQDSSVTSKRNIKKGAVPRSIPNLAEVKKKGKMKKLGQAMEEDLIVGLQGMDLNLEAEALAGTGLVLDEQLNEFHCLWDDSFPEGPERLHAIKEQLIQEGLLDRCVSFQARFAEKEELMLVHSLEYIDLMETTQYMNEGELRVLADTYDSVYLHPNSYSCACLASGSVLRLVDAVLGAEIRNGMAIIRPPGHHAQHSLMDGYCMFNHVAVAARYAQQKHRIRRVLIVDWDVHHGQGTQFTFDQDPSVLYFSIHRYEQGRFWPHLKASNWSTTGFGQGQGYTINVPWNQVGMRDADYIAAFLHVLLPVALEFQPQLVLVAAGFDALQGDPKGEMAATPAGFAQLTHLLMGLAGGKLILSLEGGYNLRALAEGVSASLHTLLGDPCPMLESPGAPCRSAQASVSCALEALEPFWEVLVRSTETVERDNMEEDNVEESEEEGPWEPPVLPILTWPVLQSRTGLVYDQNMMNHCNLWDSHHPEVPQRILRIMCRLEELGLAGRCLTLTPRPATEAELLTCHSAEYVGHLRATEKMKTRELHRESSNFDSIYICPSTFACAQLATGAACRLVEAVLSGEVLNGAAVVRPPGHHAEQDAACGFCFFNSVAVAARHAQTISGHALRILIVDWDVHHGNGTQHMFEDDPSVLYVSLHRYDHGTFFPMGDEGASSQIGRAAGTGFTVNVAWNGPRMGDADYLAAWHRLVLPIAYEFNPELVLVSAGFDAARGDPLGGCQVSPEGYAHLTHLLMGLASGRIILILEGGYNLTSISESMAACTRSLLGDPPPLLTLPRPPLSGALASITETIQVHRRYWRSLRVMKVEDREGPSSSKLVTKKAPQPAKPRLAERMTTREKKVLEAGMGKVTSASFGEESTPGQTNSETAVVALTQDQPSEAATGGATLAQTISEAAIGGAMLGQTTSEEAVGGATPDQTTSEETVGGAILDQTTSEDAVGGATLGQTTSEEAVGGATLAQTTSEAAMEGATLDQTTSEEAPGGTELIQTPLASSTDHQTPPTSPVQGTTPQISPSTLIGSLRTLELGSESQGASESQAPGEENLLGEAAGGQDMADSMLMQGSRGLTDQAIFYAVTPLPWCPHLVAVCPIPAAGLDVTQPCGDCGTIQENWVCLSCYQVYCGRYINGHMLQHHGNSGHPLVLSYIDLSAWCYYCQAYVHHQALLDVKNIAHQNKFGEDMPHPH
The experiment can be described thus: In vitro histone deacetylase assay: enzymatic HDAC6 electrophoretic mobility shift assay. It is filed as biochemical. Conditions: peptide substrate RHKK(Ac)-NH2 2 μM, enzyme 1 nM, 25° C., 12 concentrations; read-out: HDAC6 activity range (IC50). On the procedure:
The enzymatic HDAC6 assay was performed using electrophoretic mobility shift assay. Full length human recombinant HDAC6 protein was expressed in baculoviral system and purified by affinity chromatography. The enzymatic reactions were assembled in 384 well plates in a total volume of 25 μL in a reaction buffer composing: 100 mM HEPES, pH 7.5, 25 mM KCl, 0.1% bovine serum albumin, 0.01% Triton X-100, 1% DMSO (from compounds) 2 μM of the fluorescently labeled peptide substrate and enzyme. The enzyme was added at a final concentration of 1 nM. The peptide substrate RHKK(Ac)-NH2 was used. The compounds were tested at 12 concentrations spaced by 3× dilution intervals. Negative control samples (0%-inhibition in the absence of inhibitor) and positive control samples (100%-inhibition) were assembled in replicates of four in each assay plate. The reactions were incubated at 25° C. and quenched by the addition of 45 μL of termination buffer (100 mM HEPES, pH 7.5, 0.01% Triton X-100, 0.05% SDS).
The terminated assay plates were analyzed on LabChip® 3000 microfluidic electrophoresis instrument (Perkin Elmer/Caliper Life Sciences). The fluorescence intensity of the electrophoretically separated de-acetylated product and substrate peptide was measured. Activity in each sample was determined as the product to sum ratio (PSR): P/(S+P), where P is the peak height of the product peptide and S is the peak height of the substrate peptide. Percent inhibition (Pinh) is determined using the following equation:
Pinh=(PSR0%−PSRinh)/(PSR0%−PSR100%)*100, where PSRinh is the product sum ratio in the presence of inhibitor, PSR0% is the average product sum ration in the absence of inhibitor and PSR100% is the average product sum ratio in 100%-inhibition control samples. The IC50 values of inhibitors were determined by fitting the %-inhibition curves with 4 parameter dose-response model using XLfit 4 software.
As set forth in Table-7, below, IC50 values are defined as follows: IC50≤0.01 μM (+++); IC50>0.01 μM and ≤0.05 μM (++); IC50>0.05 μM (+).
For orientation: A gel shift assay detects complexes by their altered migration in electrophoresis.
As to `CN1CC[C@]2(Cc3ccc(C(=O)NO)cc3C2)C1=O` [Compound I-1, (R)—N-hydroxy-1′-methyl-2′-oxo-1,3-dihydrospiro[indene-2,3′-pyrrolidine]-5-carboxamide], the IC50 (usually the concentration needed to halve the response being measured) fell in the range of 10 to 50 nM.

Take `CN1CC[C@@]2(Cc3ccc(C(=O)NO)cc3C2)C1=O` [Compound I-2, (S)—N-hydroxy-1′-methyl-2′-oxo-1,3-dihydrospiro[indene-2,3′-pyrrolidine]-5-carboxamide]: the IC50 lay within 10 to 50 nM.

For `CC(C)N1CC[C@]2(Cc3ccc(C(=O)NO)cc3C2)C1=O` [Compound I-3, (R)—N-hydroxy-1′-isopropyl-2′-oxo-1,3-dihydrospiro[indene-2,3′-pyrrolidine]-5-carboxamide], the concentration for half-maximal inhibition (IC50) was 10 to 50 nM.

Consider `CC(C)N1CC[C@@]2(Cc3ccc(C(=O)NO)cc3C2)C1=O` [Compound I-4, (S)—N-hydroxy-1′-isopropyl-2′-oxo-1,3-dihydrospiro[indene-2,3′-pyrrolidine]-5-carboxamide], for which the IC50 was greater than 50 nM.

For `CCN1CC[C@]2(Cc3ccc(C(=O)NO)cc3C2)C1=O` [Compound I-5, (R)-1′-ethyl-N-hydroxy-2′-oxo-1,3-dihydrospiro[indene-2,3′-pyrrolidine]-5-carboxamide], the IC50 is 10 to 50 nM.

For the molecule `CCN1CC[C@@]2(Cc3ccc(C(=O)NO)cc3C2)C1=O` [Compound I-6, (S)-1′-ethyl-N-hydroxy-2′-oxo-1,3-dihydrospiro[indene-2,3′-pyrrolidine]-5-carboxamide], the IC50 was greater than 50 nM.

With `CC(C)CN1CC[C@]2(Cc3ccc(C(=O)NO)cc3C2)C1=O` [Compound I-7, (R)—N-hydroxy-1′-isobutyl-2′-oxo-1,3-dihydrospiro[indene-2,3′-pyrrolidine]-5-carboxamide], the IC50 lay within 10 to 50 nM.

As for `CC(C)CN1CC[C@@]2(Cc3ccc(C(=O)NO)cc3C2)C1=O` [Compound I-8, (S)—N-hydroxy-1′-isobutyl-2′-oxo-1,3-dihydrospiro[indene-2,3′-pyrrolidine]-5-carboxamide], the IC50 fell in the range of 10 to 50 nM.

Regarding `Cc1ccccc1CN1CC[C@]2(Cc3ccc(C(=O)NO)cc3C2)C1=O` [Compound I-9, (R)—N-hydroxy-1′-(2-methylbenzyl)-2′-oxo-1,3-dihydrospiro[indene-2,3′-pyrrolidine]-5-carboxamide], the 50% inhibitory concentration (IC50) lay in the range of 10 to 50 nM.

With `Cc1ccccc1CN1CC[C@@]2(Cc3ccc(C(=O)NO)cc3C2)C1=O` [Compound I-10, (S)—N-hydroxy-1′-(2-methylbenzyl)-2′-oxo-1,3-dihydrospiro[indene-2,3′-pyrrolidine]-5-carboxamide], the IC50 fell in the range of 10 to 50 nM.

For the molecule `O=C(NO)c1ccc2c(c1)C[C@@]1(CCN(Cc3ccccc3)C1=O)C2` [Compound I-11, (R)-1′-benzyl-N-hydroxy-2′-oxo-1,3-dihydrospiro[indene-2,3′-pyrrolidine]-5-carboxamide], the half-inhibitory concentration (IC50) was no more than 10 nM.

Consider `O=C(NO)c1ccc2c(c1)C[C@]1(CCN(Cc3ccccc3)C1=O)C2` [Compound I-12, (S)-1′-benzyl-N-hydroxy-2′-oxo-1,3-dihydrospiro[indene-2,3′-pyrrolidine]-5-carboxamide], for which the concentration for half-maximal inhibition (IC50) was in the range of 10 to 50 nM.

In the case of `O=C(NO)c1ccc2c(c1)C[C@@]1(CCN(c3ccccc3)C1=O)C2` [Compound I-13, (R)—N-hydroxy-2′-oxo-1′-phenyl-1,3-dihydrospiro[indene-2,3′-pyrrolidine]-5-carboxamide], the half-inhibitory concentration (IC50) lay within 10 to 50 nM.

`O=C(NO)c1ccc2c(c1)C[C@]1(CCN(c3ccccc3)C1=O)C2` [Compound I-14, (S)—N-hydroxy-2′-oxo-1′-phenyl-1,3-dihydrospiro[indene-2,3′-pyrrolidine]-5-carboxamide]: the IC50 lay in the range of 10 to 50 nM.

In the case of `O=C(NO)c1ccc2c(c1)C[C@@]1(CCN(c3ccc(F)cc3)C1=O)C2` [Compound I-15, (R)-1′-(4-fluorophenyl)-N-hydroxy-2′-oxo-1,3-dihydrospiro[indene-2,3′-pyrrolidine]-5-carboxamide], the IC50 was in the range of 10 to 50 nM.

Take `O=C(NO)c1ccc2c(c1)C[C@]1(CCN(c3ccc(F)cc3)C1=O)C2` [Compound I-16, (S)-1′-(4-fluorophenyl)-N-hydroxy-2′-oxo-1,3-dihydrospiro[indene-2,3′-pyrrolidine]-5-carboxamide]: the concentration for half-maximal inhibition (IC50) was 10 to 50 nM.

In the case of `O=C(NO)c1ccc2c(c1)C[C@@]1(CCN(c3cccnc3)C1=O)C2` [Compound I-17, (R)—N-hydroxy-2′-oxo-1′-(pyridin-3-yl)-1,3-dihydrospiro[indene-2,3′-pyrrolidine]-5-carboxamide], the IC50 is no more than 10 nM.

For `O=C(NO)c1ccc2c(c1)C[C@]1(CCN(c3cccnc3)C1=O)C2` [Compound I-18, (S)—N-hydroxy-2′-oxo-1′-(pyridin-3-yl)-1,3-dihydrospiro[indene-2,3′-pyrrolidine]-5-carboxamide], the half-inhibitory concentration (IC50) is 10 to 50 nM.

As to `O=C(NO)c1ccc2c(c1)C[C@@]1(CCN(c3ccccn3)C1=O)C2` [Compound I-19, (R)—N-hydroxy-2′-oxo-1′-(pyridin-2-yl)-1,3-dihydrospiro[indene-2,3′-pyrrolidine]-5-carboxamide], the IC50 was 10 to 50 nM.

For the molecule `O=C(NO)c1ccc2c(c1)C[C@]1(CCN(c3ccccn3)C1=O)C2` [Compound I-20, (S)—N-hydroxy-2′-oxo-1′-(pyridin-2-yl)-1,3-dihydrospiro[indene-2,3′-pyrrolidine]-5-carboxamide], the 50% inhibitory concentration (IC50) was 10 to 50 nM.

With `O=C(NO)c1ccc2c(c1)C[C@@]1(CCN(c3ccncc3)C1=O)C2` [Compound I-21, (R)—N-hydroxy-2′-oxo-1′-(pyridin-4-yl)-1,3-dihydrospiro[indene-2,3′-pyrrolidine]-5-carboxamide], the IC50 was in the range of 10 to 50 nM.

In the case of `O=C(NO)c1ccc2c(c1)C[C@]1(CCN(c3ccncc3)C1=O)C2` [Compound I-22, (S)—N-hydroxy-2′-oxo-1′-(pyridin-4-yl)-1,3-dihydrospiro[indene-2,3′-pyrrolidine]-5-carboxamide], the IC50 was 10 to 50 nM.

As to `O=C(NO)c1ccc2c(c1)C[C@@]1(CCN(Cc3cccnc3)C1=O)C2` [Compound I-23, (R)—N-hydroxy-2′-oxo-1′-(pyridin-3-ylmethyl)-1,3-dihydrospiro[indene-2,3′-pyrrolidine]-5-carboxamide], the half-maximal inhibitory concentration (IC50) fell in the range of 10 to 50 nM.

Turning to `CN1CC[C@]2(Cc3ccc(C(=O)NO)cc3C2)C1` [Compound I-24, (R)—N-hydroxy-1′-methyl-1,3-dihydrospiro[indene-2,3′-pyrrolidine]-5-carboxamide], the half-maximal inhibitory concentration (IC50) lay within 10 to 50 nM.

Turning to `CN1CC[C@@]2(Cc3ccc(C(=O)NO)cc3C2)C1` [Compound I-25, (S)—N-hydroxy-1′-methyl-1,3-dihydrospiro[indene-2,3′-pyrrolidine]-5-carboxamide], the IC50 is greater than 50 nM.

For `O=C(NO)c1ccc2c(c1)C[C@@]1(CCN(Cc3ccccc3)C1)C2` [Compound I-26, (R)-1′-benzyl-N-hydroxy-1,3-dihydrospiro[indene-2,3′-pyrrolidine]-5-carboxamide], the IC50 lay in the range of 10 to 50 nM.
